Laboratory results from ChEMBL document CHEMBL4334494, “Recent advances in the targeting of human DNA ligase I as a potential new strategy for cancer treatment” (Eur J Med Chem, 2019).

What follows are compounds tested against T1, DNA ligase 1 (Homo sapiens, UniProt P18858) (assay: Inhibition of human DNA ligase 1 expressed in Escherichia coli BL21DE3RP cells at 50 uM using 52-mer DNA/25-mer DNA/27-mer DNA as substrate after 30 mins by Cyanin3 dye-based fluorescence assay relative to control).
T1 sequence (P18858 whole entry): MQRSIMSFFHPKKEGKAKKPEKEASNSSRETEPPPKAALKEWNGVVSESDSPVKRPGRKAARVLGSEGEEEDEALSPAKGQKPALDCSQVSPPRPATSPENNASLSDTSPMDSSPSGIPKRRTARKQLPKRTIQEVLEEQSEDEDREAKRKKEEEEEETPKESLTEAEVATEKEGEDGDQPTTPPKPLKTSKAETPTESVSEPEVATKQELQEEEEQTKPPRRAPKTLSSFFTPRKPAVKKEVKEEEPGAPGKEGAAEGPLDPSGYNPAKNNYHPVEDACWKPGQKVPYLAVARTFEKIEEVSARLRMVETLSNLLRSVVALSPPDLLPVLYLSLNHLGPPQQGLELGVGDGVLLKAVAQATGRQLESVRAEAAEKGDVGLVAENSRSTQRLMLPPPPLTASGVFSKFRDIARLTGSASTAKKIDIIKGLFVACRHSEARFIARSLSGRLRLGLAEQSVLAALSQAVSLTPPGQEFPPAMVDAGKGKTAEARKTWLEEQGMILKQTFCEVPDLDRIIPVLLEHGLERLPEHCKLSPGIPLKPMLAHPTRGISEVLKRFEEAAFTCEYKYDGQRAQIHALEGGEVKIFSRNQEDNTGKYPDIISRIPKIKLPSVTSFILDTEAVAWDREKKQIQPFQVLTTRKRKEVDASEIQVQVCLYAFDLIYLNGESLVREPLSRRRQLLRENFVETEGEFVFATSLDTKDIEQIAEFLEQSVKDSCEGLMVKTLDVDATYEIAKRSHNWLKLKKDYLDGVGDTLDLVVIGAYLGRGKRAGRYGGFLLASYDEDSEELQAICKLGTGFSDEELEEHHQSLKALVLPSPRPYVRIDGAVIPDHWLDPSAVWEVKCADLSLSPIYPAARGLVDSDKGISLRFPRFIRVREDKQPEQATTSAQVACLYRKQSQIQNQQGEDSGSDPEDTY

Row | inhibition [%] | Structure (SMILES)
1 | > 75 | O=C1/C(=C/c2ccc(F)cc2)CN(c2nc(-c3ccccc3)cs2)C/C1=C\c1ccc(F)cc1
2 | > 75 | CC(C)c1ccc(/C=C2\CN(C(=S)NCc3ccccc3)C/C(=C\c3ccc(C(C)C)cc3)C2=O)cc1
3 | > 75 | Cc1ccc(/C=C2\CN(C(=S)NCc3ccccc3)C/C(=C\c3ccc(C)cc3)C2=O)cc1
4 | > 75 | COc1ccc(/C=C2\CN(C(=S)NCc3ccccc3)C/C(=C\c3ccc(OC)cc3)C2=O)cc1
5 | > 75 | Cc1ccc(/C=C2\CN(C(=S)Nc3ccccc3)C/C(=C\c3ccc(C)cc3)C2=O)cc1
6 | > 75 | COc1ccc(/C=C2\CN(c3nc(-c4ccccc4)cs3)C/C(=C\c3ccc(OC)cc3)C2=O)cc1
7 | > 75 | Cc1ccccc1/C=C1\CN(C(=S)NCCc2ccccc2)C/C(=C\c2ccccc2C)C1=O
8 | > 75 | O=C1/C(=C/c2ccccc2F)CN(C(=S)NC(=O)c2ccccc2)C/C1=C\c1ccccc1F
9 | > 75 | O=C1/C(=C/c2ccc(F)cc2)CN(C(=S)NCc2ccccc2)C/C1=C\c1ccc(F)cc1
10 | > 75 | Cc1ccccc1/C=C1\CN(C(=S)Nc2ccccc2)C/C(=C\c2ccccc2C)C1=O
11 | > 75 | Cc1ccccc1/C=C1\CN(c2nc(-c3ccccc3)cs2)C/C(=C\c2ccccc2C)C1=O
12 | > 75 | O=C1/C(=C/c2ccccc2F)CN(c2nc(-c3ccccc3)cs2)C/C1=C\c1ccccc1F
13 | > 75 | O=C1/C(=C/c2ccc(F)cc2)CN(C(=S)Nc2ccccc2)C/C1=C\c1ccc(F)cc1

What follows are compounds tested against T1, DNA ligase 1 (assay: Inhibition of human DNA ligase 1 at 25 uM using nicked DNA as substrate after 30 mins relative to control).

Row | inhibition [%] | Structure (SMILES)
14 | < 50 | COc1ccc(/C=C/c2cc(=O)oc3c2ccc2ccccc23)cc1
15 | > 90 | Cc1cccc2c1ccc1c(/C=C/c3ccc([N+](=O)[O-])cc3)cc(=O)oc12
16 | > 50 | COc1ccc(/C=C/c2cc(=O)oc3c2ccc2c(OC)cccc23)cc1OC
17 | > 90 | O=c1cc(/C=C/c2ccc([N+](=O)[O-])cc2)c2ccc3ccccc3c2o1
18 | > 50 | COc1cc(/C=C/c2cc(=O)oc3c2ccc2c(C)cccc23)cc(OC)c1
19 | < 50 | N#Cc1ccc(/C=C/c2cc(=O)oc3c2ccc2ccccc23)cc1
20 | < 50 | COc1ccc(/C=C/c2cc(=O)oc3c2ccc2c(C)cccc23)cc1OC
21 | < 50 | COc1cc(/C=C/c2cc(=O)oc3c2ccc2ccccc23)cc(OC)c1OC
22 | < 50 | Cc1cccc2c1ccc1c(/C=C/c3ccccc3)cc(=O)oc12
23 | < 50 | COc1cccc(/C=C/c2cc(=O)oc3c2ccc2ccccc23)c1
24 | < 50 | COc1ccc(OC)c(/C=C/c2cc(=O)oc3c2ccc2c(OC)cccc23)c1
25 | < 50 | COc1ccc(OC)c(/C=C/c2cc(=O)oc3c2ccc2ccccc23)c1
26 | < 50 | COc1ccccc1/C=C/c1cc(=O)oc2c1ccc1c(C)cccc12
27 | < 50 | COc1cc(/C=C/c2cc(=O)oc3c2ccc2c(OC)cccc23)cc(OC)c1OC
28 | < 50 | COc1ccc(/C=C/c2cc(=O)oc3c2ccc2c(OC)cccc23)cc1
29 | < 50 | COc1cccc(OC)c1/C=C/c1cc(=O)oc2c1ccc1c(OC)cccc12
30 | > 50 | COc1cccc2c1ccc1c(/C=C/c3ccccc3)cc(=O)oc12
31 | < 50 | COc1ccc(/C=C/c2cc(=O)oc3c2ccc2c(OC)cccc23)c(OC)c1
32 | < 50 | COc1cc(/C=C/c2cc(=O)oc3c2ccc2c(C)cccc23)c(OC)c(OC)c1OC
33 | > 90 | COc1ccc(/C=C/c2cc(=O)oc3c2ccc2c(C)cccc23)c(OC)c1
34 | > 90 | COc1cccc2c1ccc1c(/C=C/c3ccc(C#N)cc3)cc(=O)oc12
35 | > 90 | COc1cccc2c1ccc1c(/C=C/c3ccc([N+](=O)[O-])cc3)cc(=O)oc12
36 | < 50 | COc1ccc(OC)c(/C=C/c2cc(=O)oc3c2ccc2c(C)cccc23)c1
37 | < 50 | COc1ccc(/C=C/c2cc(=O)oc3c2ccc2ccccc23)c(OC)c1
38 | < 50 | CN(C)c1ccc(/C=C/c2cc(=O)oc3c2ccc2ccccc23)cc1
39 | < 50 | O=c1cc(/C=C/c2ccccc2)c2ccc3ccccc3c2o1
40 | < 50 | COc1ccc(/C=C/c2cc(=O)oc3c2ccc2ccccc23)cc1OC
